Patent publication US20230371512A1, “FUNGICIDAL COMPOSITIONS” (SYNGENTA CROP PROTECTION AG, priority 2020, published 2023)

Tests used:
[1] = test system: Mycosphaerella arachidis Syn. Cercospora arachidicola; assay: Mycosphaerella arachidis liquid culture growth inhibition (microtiter plate, PDB, photometric); type: cell-based; settings: read-out: Observed Activity (%); for inhibition at 0.625 ppm: single compound 0.625 ppm; for inhibition at 1.25 ppm: single compound 1.25 ppm; for inhibition at 2.5 ppm: single compound 2.5 ppm; for inhibition at 5 ppm: single compound 5 ppm; for inhibition at 10 ppm: single compound 10 ppm; for inhibition at 20 ppm: single compound 20 ppm
Procedure: Mycosphaerella arachidis Syn. Cercospora arachidicola (Brown Leaf Spot of Peanut): Conidia of the fungus from cryogenic storage were directly mixed into nutrient broth (PDB potato dextrose broth). A DMSO solution of the test compounds was placed into a microtiter plate (96-well format) and the nutrient broth containing the fungal spores was added to it. The test plates were incubated at 24° C. and the inhibition of growth was determined photometrically after 5-6 days at 620 nm.

Septoria tritici = Septoria tritici liquid culture growth inhibition (microtiter plate, PDB, photometric); type: cell-based; settings: Zymoseptoria tritici, read-out: Observed Activity (%)
Procedure: (§1) Septoria tritici (Leaf Blotch): Conidia of the fungus from cryogenic storage were directly mixed into nutrient broth (PDB potato dextrose broth). A DMSO solution of the test compounds was placed into a microtiter plate (96-well format) and the nutrient broth containing the fungal spores was added to it.

Phakopsora pachyrhizi = Phakopsora pachyrhizi soybean rust, treated plants / leaf disk test; type: in vivo; settings: foliar, read-out: Observed Activity (%); for inhibition at 15 g/ha: single compound 15 g/ha
Procedure: Phakopsora pachyrhizi (Soybean Rust):
Whole soybean plants are treated with the recited active ingredients 4 weeks after planting. 1 day after spraying leaf disks are cut from the first trifoliate leaf. Five repetitions at each rate are conducted. The leaf disks are inoculated with Phakopsora pachyrhizi (Asian soybean rust) one day after treatment. Evaluation of the leaf disks is conducted 11 to 14 days after inoculation and the activity is derived from the relation of the treated vs untreated, infested check. The rates of the active ingredients used are given in Table as g active ingredient (a.i.)/ha.

Septoria Glycines = assay: Septoria glycines liquid culture growth inhibition (microtiter plate, PDB, visual); type: cell-based; settings: read-out: Observed Activity (%)
Procedure: as §1, with “Glycines (Brown Spot):” for “tritici (Leaf Blotch):”

CNC(=S)c1ccc(-c2noc(C(F)(F)F)n2)cc1 [N-methyl-4-[5-(trifluoromethyl)-1,2,4-oxadiazol-3-yl]benzenecarbothioamide]
inhibition at 3 ppm ([1]; single compound 3 ppm): 70% | inhibition at 6 ppm ([1]; single compound 6 ppm): 90% | inhibition at 6 ppm (Septoria tritici; single compound 6 ppm): 50%

Cc1cc(C2=NC(C)(C)C(F)(F)c3ccccc32)cnc1C(F)F [Compound A-1.2, 1-[6-(difluoromethyl)-5-methyl-3-pyridyl]-4,4-difluoro-3,3-dimethyl-isoquinoline]
inhibition at 15 g/ha (Phakopsora pachyrhizi): 12% | inhibition at 0.625 ppm [1]: 0% | inhibition at 1.25 ppm [1]: 0% | inhibition at 2.5 ppm [1]: 0% | inhibition at 5 ppm [1]: 0% | inhibition at 10 ppm [1]: 20% | inhibition at 20 ppm [1]: 50%

CCN(C)C=Nc1cc(C)c(Oc2ccccc2F)cc1Cl [N′-[2-chloro-4-(2-fluorophenoxy)-5-methyl-phenyl]-N-ethyl-N-methyl-formamidine]
inhibition at 1 g/ha (Phakopsora pachyrhizi; single compound 1 g/ha): 4% | inhibition at 2 g/ha (Phakopsora pachyrhizi; single compound 2 g/ha): 13% | inhibition at 1 ppm ([1]; single compound 1 ppm): 70% | inhibition at 2 ppm ([1]; single compound 2 ppm): 90%

O=C(Nc1ccccc1F)c1ccc(-c2noc(C(F)(F)F)n2)cc1 [N-(2-fluorophenyl)-4-[5-(trifluoromethyl)-1,2,4-oxadiazol-3-yl]benzamide]
inhibition at 0.75 g/ha (Phakopsora pachyrhizi; single compound 0.75 g/ha): 27% | inhibition at 1.5 g/ha (Phakopsora pachyrhizi; single compound 1.5 g/ha): 45%

CNC(=O)C(F)(F)c1ccc(-c2noc(C(F)(F)F)n2)cc1 [2,2-difluoro-N-methyl-2-[4-[5-(trifluoromethyl)-1,2,4-oxadiazol-3-yl]phenyl]acetamide]
inhibition at 10 ppm [1]: 20% | inhibition at 20 ppm [1]: 50%

Cc1cc(C2=NC(C)(C)C(F)(F)c3ccccc32)cnc1C [Compound A-1.1, 1-(5,6-dimethyl-3-pyridyl)-4,4-difluoro-3,3-dimethyl-isoquinoline]
inhibition at 15 g/ha (Phakopsora pachyrhizi): 2% | inhibition at 30 g/ha (Phakopsora pachyrhizi; single compound 30 g/ha): 4% | inhibition at 0.625 ppm [1]: 0% | inhibition at 1.25 ppm [1]: 0% | inhibition at 2.5 ppm [1]: 0% | inhibition at 5 ppm [1]: 0% | inhibition at 10 ppm [1]: 0% | inhibition at 20 ppm [1]: 20% | inhibition at 5 ppm (Septoria Glycines; single compound 5 ppm): 0% | inhibition at 10 ppm (Septoria Glycines; single compound 10 ppm): 20% | inhibition at 20 ppm (Septoria Glycines; single compound 20 ppm): 50% | inhibition at 1.25 ppm (Septoria tritici; single compound 1.25 ppm): 0% | inhibition at 2.5 ppm (Septoria tritici; single compound 2.5 ppm): 0% | inhibition at 5 ppm (Septoria tritici; single compound 5 ppm): 20% | inhibition at 10 ppm (Septoria tritici; single compound 10 ppm): 50% | inhibition at 20 ppm (Septoria tritici; single compound 20 ppm): 70%

N#Cc1ccc(Oc2ccc(C(F)(F)C(O)(Cn3nc[nH]c3=S)c3ccc(F)cc3F)nc2)cc1 (stereo not drawn) [4-[[6-[2-(2,4-Difluorophenyl)-1,1-difluoro-2-hydroxy-3-(5-thioxo-4H-1,2,4-triazol-1-yl)propyl]-3-pyridyl]oxy]benzonitrile]
inhibition at 0.25 ppm (Septoria Glycines; single compound 0.25 ppm): 20% | inhibition at 0.5 ppm (Septoria Glycines; single compound 0.5 ppm): 20%
